Laboratory results reported in PubChem BioAssay (NCI).
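96-well plates; 48 h exposure; 5 concentrations. Endpoints by linear interpolation between flanking doses. Not reached: highest tested concentration assigned. Definition used: TGI = concentration required for complete inhibition of growth.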

Columns and labels:
Test in all cases: NCI anticancer screen, dose series, 48 h
[1] = test system: IGROV1 ovarian
[2] = test system: UACC-257 melanoma
[3] = test system: KM12 colon
[4] = test system: SF-268 CNS
[5] = test system: MOLT-4 leukemia
[6] = test system: SNB-78 CNS
[7] = test system: SR leukemia
[8] = test system: HOP-18 NSCLC
[9] = test system: K-562 leukemia
[10] = test system: OVCAR-3 ovarian
[11] = test system: ACHN renal
[12] = test system: M14 melanoma
[13] = test system: HCT-116 colon
[14] = test system: HCT-15 colon
[15] = test system: NCI-H460 lung
[16] = test system: MALME-3M melanoma
[17] = test system: EKVX NSCLC
[18] = test system: UACC-62 melanoma
[19] = test system: SW-620 colon
[20] = test system: HT29 colon
[21] = test system: HCC-2998 colon
[22] = test system: SK-MEL-2 melanoma
[23] = test system: NCI-H23 lung
[24] = test system: COLO 205 colon
[25] = test system: HL-60(TB) leukemia
[26] = test system: NCI-H522 lung
[27] = test system: A549 NSCLC
[28] = test system: U251 CNS
[29] = test system: SNB-19 CNS
[30] = test system: 786-0 renal
[31] = test system: OVCAR-5 ovarian
[32] = test system: SNB-75 CNS
[33] = test system: CCRF-CEM leukemia
[34] = test system: HOP-62 NSCLC
[35] = test system: DLD-1 colon
[36] = test system: SN12C renal
[37] = test system: SF-295 CNS
[38] = test system: SK-MEL-5 melanoma
[39] = test system: SF-539 CNS
[40] = test system: CAKI-1 renal
[41] = test system: KM20L2 colon
[42] = test system: RXF 393 renal
[43] = test system: OVCAR-4 ovarian
[44] = test system: OVCAR-8 ovarian
[45] = test system: LXFL 529 NSCLC
[46] = test system: NCI-H226 lung
[47] = test system: LOX IMVI melanoma
[48] = test system: RPMI-8226 leukemia
[49] = test system: SK-MEL-28 melanoma
[50] = test system: M19-MEL melanoma
[51] = test system: UO-31 renal
[52] = test system: XF 498 CNS
[53] = test system: A498 renal
[54] = test system: DMS 114 small cell lung
[55] = test system: SK-OV-3 ovarian
[56] = test system: HOP-92 NSCLC
[57] = test system: DMS 273 small cell lung
[58] = test system: TK-10 renal

## COc1ccc(-c2onc(-c3ccc([N+](=O)[O-])cc3)c2C2=NCCCN2)cc1
[1]
  TGI: > 100 µM
[2]
  TGI: > 100 µM
[3]
  TGI: > 100 µM
[4]
  TGI: > 100 µM
[5]
  TGI: > 100 µM
[6]
  TGI: > 100 µM
[7]
  TGI: > 100 µM
[8]
  TGI: > 100 µM
[9]
  TGI: > 100 µM
[10]
  TGI: 85.5 µM
[11]
  TGI: > 100 µM
[12]
  TGI: > 100 µM
[13]
  TGI: > 100 µM
[14]
  TGI: > 100 µM
[15]
  TGI: > 100 µM
[16]
  TGI: > 100 µM
[17]
  TGI: > 100 µM
[18]
  TGI: > 100 µM
[19]
  TGI: > 100 µM
[20]
  TGI: > 100 µM
[21]
  TGI: > 100 µM
[22]
  TGI: > 100 µM
[23]
  TGI: > 100 µM
[24]
  TGI: > 100 µM
[25]
  TGI: > 100 µM
[26]
  TGI: > 100 µM
[27]
  TGI: > 100 µM
[28]
  TGI: > 100 µM
[29]
  TGI: > 100 µM
[30]
  TGI: > 100 µM
[31]
  TGI: > 100 µM
[32]
  TGI: > 100 µM
[33]
  TGI: > 100 µM
[34]
  TGI: > 100 µM
[35]
  TGI: > 100 µM
[36]
  TGI: > 100 µM
[37]
  TGI: > 100 µM
[38]
  TGI: > 100 µM
[39]
  TGI: > 100 µM
[40]
  TGI: > 100 µM
[41]
  TGI: > 100 µM
[42]
  TGI: > 100 µM
[43]
  TGI: > 100 µM
[44]
  TGI: > 100 µM
[45]
  TGI: > 100 µM
[46]
  TGI: > 100 µM
[47]
  TGI: > 100 µM
[48]
  TGI: > 100 µM
[49]
  TGI: > 100 µM
[50]
  TGI: > 100 µM
[51]
  TGI: > 100 µM
[52]
  TGI: > 100 µM

## CCOC(=O)C1=C(C)N2CCOC2(C)C(C(=O)OC)C1c1cccc(Cl)c1 (centres undefined)
[1]
  TGI: > 100 µM
[2]
  TGI: > 100 µM
[53]
  TGI: > 100 µM
[3]
  TGI: > 100 µM
[4]
  TGI: > 100 µM
[6]
  TGI: > 100 µM
[7]
  TGI: > 100 µM
[8]
  TGI: > 100 µM
[9]
  TGI: > 100 µM
[10]
  TGI: > 100 µM
[11]
  TGI: > 100 µM
[12]
  TGI: > 100 µM
[13]
  TGI: > 100 µM
[14]
  TGI: > 100 µM
[15]
  TGI: > 100 µM
[16]
  TGI: > 100 µM
[17]
  TGI: > 100 µM
[18]
  TGI: > 100 µM
[19]
  TGI: > 100 µM
[20]
  TGI: > 100 µM
[21]
  TGI: > 100 µM
[22]
  TGI: > 100 µM
[23]
  TGI: > 100 µM
[24]
  TGI: > 100 µM
[54]
  TGI: > 100 µM
[25]
  TGI: > 100 µM
[26]
  TGI: > 100 µM
[27]
  TGI: > 100 µM
[28]
  TGI: > 100 µM
[29]
  TGI: > 100 µM
[55]
  TGI: > 100 µM
[30]
  TGI: > 100 µM
[31]
  TGI: > 100 µM
[32]
  TGI: > 100 µM
[33]
  TGI: > 100 µM
[34]
  TGI: > 100 µM
[35]
  TGI: > 100 µM
[56]
  TGI: > 100 µM
[36]
  TGI: > 100 µM
[37]
  TGI: > 100 µM
[38]
  TGI: > 100 µM
[39]
  TGI: > 100 µM
[40]
  TGI: > 100 µM
[41]
  TGI: > 100 µM
[44]
  TGI: > 100 µM
[57]
  TGI: > 100 µM
[45]
  TGI: > 100 µM
[47]
  TGI: > 100 µM
[48]
  TGI: > 100 µM
[49]
  TGI: > 100 µM
[50]
  TGI: > 100 µM
[58]
  TGI: > 100 µM
[51]
  TGI: > 100 µM

## CCCCCCCC/C=C/CCCCCCCC(=O)N(O)C1CC(n2cc(C)c(=O)[nH]c2=O)OC1CO (centres undefined)
[1]
  TGI: 17.6 µM
[2]
  TGI: 26.7 µM
[53]
  TGI: 32.2 µM
[3]
  TGI: 23.3 µM
[4]
  TGI: 26.3 µM
[5]
  TGI: 19.6 µM
[6]
  TGI: 45.8 µM
[7]
  TGI: 20.5 µM
[8]
  TGI: 13.9 µM
[9]
  TGI: 21 µM
[10]
  TGI: 20.1 µM
[11]
  TGI: 18 µM
[12]
  TGI: 10.1 µM
[13]
  TGI: 20.6 µM
[14]
  TGI: 16.2 µM
[15]
  TGI: 13.6 µM
[16]
  TGI: 22 µM
[18]
  TGI: 11 µM
[19]
  TGI: 23.8 µM
[20]
  TGI: 22.4 µM
[21]
  TGI: 22.4 µM
[22]
  TGI: 26.9 µM
[23]
  TGI: 23.2 µM
[24]
  TGI: 16.7 µM
[54]
  TGI: 10.9 µM
[26]
  TGI: 20.2 µM
[27]
  TGI: 33.9 µM
[28]
  TGI: 17 µM
[29]
  TGI: 25.5 µM
[55]
  TGI: 21.9 µM
[30]
  TGI: 16 µM
[31]
  TGI: 22.3 µM
[32]
  TGI: 29.8 µM
[33]
  TGI: 20.4 µM
[34]
  TGI: 18.1 µM
[35]
  TGI: 18.4 µM
[56]
  TGI: 28.7 µM
[36]
  TGI: 22.8 µM
[37]
  TGI: 21.4 µM
[38]
  TGI: 19.5 µM
[39]
  TGI: 24.2 µM
[40]
  TGI: 21.6 µM
[41]
  TGI: 16.4 µM
[42]
  TGI: 16.2 µM
[43]
  TGI: 25 µM
[44]
  TGI: 24.9 µM
[57]
  TGI: 16.1 µM
[45]
  TGI: 22.4 µM
[47]
  TGI: 17.3 µM
[48]
  TGI: 50.1 µM
[49]
  TGI: 19.4 µM
[50]
  TGI: 17.7 µM
[58]
  TGI: 22.7 µM
[51]
  TGI: 14.4 µM
